Data from ChEMBL document CHEMBL4346659, “Design, synthesis and evaluation of novel 7H-pyrrolo[2,3-d]pyrimidin-4-amine derivatives as potent, selective and reversible Bruton's tyrosine kinase (BTK) inhibitors for the treatment of rheumatoid arthritis” (Eur J Med Chem, 2019).
Calls of active or inactive are those of the source. The rule behind the calls is not given here.

Key:
[1] = molecular target: T1, Tyrosine-protein kinase BTK (Homo sapiens, UniProt Q06187); experiment: Inhibition of BTK (unknown origin) at 1 uM in the presence of ATP by caliper mobility shift assay relative to control
Ramos = experiment: Antiproliferative activity against human Ramos cells; format: functional, cell-based; settings: Homo sapiens, Ramos
[2] = molecular target: T1, Tyrosine-protein kinase BTK; experiment: Inhibition of BTK (unknown origin) in the presence of ATP by caliper mobility shift assay
JeKo-1 = experiment: Antiproliferative activity against human JeKo1 cells; format: functional, cell-based; settings: Homo sapiens, JeKo-1
Daudi = experiment: Antiproliferative activity against human Daudi cells; format: functional, cell-based; settings: Homo sapiens, Daudi
[3] = molecular target: T1, Tyrosine-protein kinase BTK; experiment: Inhibition of BTK (unknown origin) at 0.1 uM in the presence of ATP by caliper mobility shift assay relative to control
Mus musculus [4] = experiment: Antiarthritic activity in DBA1/J mouse model of collagen-induced arthritis assessed as reduction in cartilage damage at 12.5 mg/kg, po qd by H and E staining based assay; format: functional, organism-based
Mus musculus [5] = experiment: Antiarthritic activity in DBA1/J mouse model of collagen-induced arthritis assessed as reduction in bone erosion at 12.5 mg/kg, po qd by H and E staining based assay; format: functional, organism-based

T1 sequence (Q06187 whole entry): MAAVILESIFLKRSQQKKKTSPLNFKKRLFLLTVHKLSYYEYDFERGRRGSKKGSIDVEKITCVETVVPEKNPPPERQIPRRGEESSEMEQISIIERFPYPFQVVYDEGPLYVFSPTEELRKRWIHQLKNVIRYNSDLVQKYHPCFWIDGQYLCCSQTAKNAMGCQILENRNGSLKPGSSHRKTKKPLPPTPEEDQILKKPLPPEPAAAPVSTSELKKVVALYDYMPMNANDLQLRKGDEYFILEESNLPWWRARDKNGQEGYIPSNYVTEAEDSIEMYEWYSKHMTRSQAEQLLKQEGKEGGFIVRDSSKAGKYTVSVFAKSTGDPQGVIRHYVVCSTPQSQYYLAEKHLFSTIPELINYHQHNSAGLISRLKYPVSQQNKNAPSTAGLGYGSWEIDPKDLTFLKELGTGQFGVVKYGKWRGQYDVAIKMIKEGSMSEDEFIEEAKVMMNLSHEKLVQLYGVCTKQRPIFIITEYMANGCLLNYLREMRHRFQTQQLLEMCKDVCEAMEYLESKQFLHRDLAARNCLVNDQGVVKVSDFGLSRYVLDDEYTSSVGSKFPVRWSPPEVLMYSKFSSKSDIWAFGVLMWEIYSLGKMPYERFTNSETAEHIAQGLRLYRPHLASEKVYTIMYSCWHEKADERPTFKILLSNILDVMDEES

SMILES | inhibition [1] | IC50 (Ramos) | IC50 [2] | IC50 (JeKo-1) | IC50 (Daudi) | inhibition [3] | Activity (Mus musculus [4]) | Activity (Mus musculus [5])
Nc1ncnc2c1c(-c1ccc3c(c1)OCO3)cn2[C@H]1CCN(C[C@H]2CO2)C1 | 86.5% | 5 µM | 0.0419 µM | 2.28 µM | 2.44 µM | 62.2% | – | –
NC(=O)CN1CC[C@H](n2cc(-c3ccc4c(c3)OCO4)c3c(N)ncnc32)C1 | 48.6% | 13.3 µM | > 0.5 µM | 4.98 µM | 3.45 µM | 12.6% | – | –
CC(C)(C)c1ccc(C(=O)Nc2ccc(-c3cn([C@H]4CCN(C[C@@H]5CO5)C4)c4ncnc(N)c34)cc2)cc1 | 53.8% | 2.97 µM | – | 3.29 µM | 5.98 µM | 15.7% | – | –
Nc1ncnc2c1c(-c1ccc3c(c1)OCO3)cn2C[C@H]1CCCN(C[C@@H]2CO2)C1 | 70.3% | 15.1 µM | – | 7.96 µM | 10.6 µM | 34.7% | – | –
Nc1ncnc2c1c(-c1cc3ccccc3o1)cn2[C@H]1CCN(C[C@@H]2CO2)C1 | 59.1% | 6.74 µM | – | 2.82 µM | 4.51 µM | 20.2% | – | –
Nc1ncnc2c1c(-c1ccc3c(c1)OCO3)cn2[C@@H]1CCN(C[C@H]2CO2)C1 | 42% | > 50 µM | > 0.5 µM | 32.5 µM | 53.8 µM | 15.2% | – | –
Nc1ncnc2c1c(-c1ccc3c(c1)OCO3)cn2[C@H]1CCN(C(=O)C2CC2)C1 | 34% | – | 0.045 µM | – | – | -3.67% | – | –
C=CC(=O)N1CCC[C@@H](n2nc(-c3ccc(Oc4ccccc4)cc3)c3c(N)ncnc32)C1 [IBRUTINIB] | – | 5.01 µM | – | 1.05 µM | 3.92 µM | – | inactive | Active
CC(C)(C)c1ccc(CN2CC[C@H](n3cc(-c4ccc5c(c4)OCO5)c4c(N)ncnc43)C2)cc1 | 3% | 4.41 µM | – | 2.07 µM | 13.2 µM | 0.01% | – | –
Nc1ncnc2c1c(-c1ccc3c(c1)OCO3)cn2C[C@@H]1CCCN1C[C@@H]1CO1 | 47.6% | 29 µM | – | 21.6 µM | 19 µM | 13.5% | – | –
